Measured values from patent US7932262B2 (Novartis AG, priority 2006, dated 2011).

Columns and labels:
[1] = test system: PC3MM cells; experiment: Cell Proliferation Assay (Cell Titer Glo), PC3MM; assay type: cell-based; details: cell proliferation, PC3MM cells; read-out: CPEC50 PC3MM
Outline: (§1)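 Following a 3-day compound exposure (37° C., 5% CO2) of A2780 or PC3MM cells plated at 1000 per well, viability was measured by Cell Titer Glo luminescence in fresh medium, read 10 min after reagent addition.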

[2] = target: T1, PDK1 kinase (Homo sapiens, UniProt O15530); experiment: PDK1 Kinase Alpha Screen Assay; assay type: biochemical; details: PDK1 Kinase Alpha Screen Assay; read-out: PDK1 IC50
T1 sequence (O15530 1-556): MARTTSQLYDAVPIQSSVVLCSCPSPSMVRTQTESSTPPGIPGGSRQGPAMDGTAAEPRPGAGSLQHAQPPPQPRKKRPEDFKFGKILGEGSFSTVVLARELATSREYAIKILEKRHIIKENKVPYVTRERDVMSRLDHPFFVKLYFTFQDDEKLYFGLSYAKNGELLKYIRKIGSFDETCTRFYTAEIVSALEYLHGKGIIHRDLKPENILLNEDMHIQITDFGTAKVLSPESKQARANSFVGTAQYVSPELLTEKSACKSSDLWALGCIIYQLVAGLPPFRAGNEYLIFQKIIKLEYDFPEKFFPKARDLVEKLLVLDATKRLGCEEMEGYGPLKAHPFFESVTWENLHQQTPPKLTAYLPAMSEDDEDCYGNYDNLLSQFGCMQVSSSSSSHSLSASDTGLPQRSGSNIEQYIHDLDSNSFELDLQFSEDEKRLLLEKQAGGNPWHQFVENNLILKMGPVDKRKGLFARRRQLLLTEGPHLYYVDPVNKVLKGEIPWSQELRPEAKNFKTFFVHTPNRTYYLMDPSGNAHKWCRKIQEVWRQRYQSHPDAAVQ
Outline: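 Detection used AlphaScreen: streptavidin donor and protein A acceptor beads (25 μg/ml each) bridged by a phospho-(Ser/Thr) PKA substrate antibody binding phosphorylated peptide. Reaction: biotin-PDK1-4 peptide (50 nM), ATP (10 uM), PDK1 in pH 7.5 Tris/MgCl2/DTT buffer, 3-18 hours, EDTA-stopped.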

[3] = test system: A2780 cells; experiment: Cell Proliferation Assay (Cell Titer Glo), A2780; assay type: cell-based; details: Homo sapiens; cell proliferation, A2780 cells; read-out: CPEC50 A2780
Outline: as §1

[4] = test system: PC-3 cells; experiment: Cell Proliferation Assay (Cell Titer Glo), PC-3 cell line; assay type: cell-based; details: Homo sapiens, PC-3, cell proliferation, PC3 cells; read-out: CPEC50 PC3
Outline: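 Cell Titer Glo luminescence, read after fresh medium replaced the dosing medium, gave viability of PC-3 cells plated at 1000 cells/well. Compounds, 1:3 serially diluted in DMSO at 500× and then in medium, were added after 3-5 h adhesion and incubated 3 days at 37° C.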

In the case of O=S(=O)(c1ccc(Nc2ncc3cccc(OC4CCNCC4)c3n2)cc1)N1CCOCC1 [Compound 771, N-(4-(morpholinosulfonyl)phenyl)-8-(piperidin-4-yloxy)quinazolin-2-amine], the EC50 [1] is reported as < 5 µM, the IC50 [2] is reported as < 5 µM and the EC50 [3] is reported as < 5 µM. For the same molecule, the EC50 [4] was < 5 µM.
In the case of CC(C)N1CCC(Oc2cccc3cnc(Nc4ccc(S(N)(=O)=O)cc4)nc23)CC1 [Compound 725, 4-(8-(1-isopropylpiperidin-4-yloxy)quinazolin-2-ylamino)benzenesulfonamide], the EC50 [1] is reported as < 5 µM, the IC50 [2] is reported as < 5 µM and the EC50 [3] is reported as < 5 µM. For the same molecule, the EC50 [4] was < 5 µM.
CC(C)N1CCC(Oc2ccc3cnc(Nc4ccc(S(N)(=O)=O)cc4)nc3c2)CC1 [Compound 794, 4-(7-(1-isopropylpiperidin-4-yloxy)quinazolin-2-ylamino)benzenesulfonamide] was tested, and the EC50 [1] was < 5 µM, the IC50 [2] was < 5 µM and the EC50 [3] was < 5 µM. The EC50 [4] was < 5 µM.
For COCCNc1ccc(-c2cccc3cnc(Nc4ccc(S(N)(=O)=O)cc4)nc23)cn1 [Compound 825, 4-(8-(6-(2-methoxyethylamlno)pyridin-3-yl)quinazoln-2-ylamino)benzenesulfonamide], the EC50 [1] was < 5 µM, the IC50 [2] was < 5 µM and the EC50 [3] was < 5 µM. The EC50 [4] was < 5 µM.
For Cn1cc(-c2ccc3cnc(Nc4ccc(S(N)(=O)=O)cc4)nc3c2)cn1 [Compound 799, 4-(7-(1-methyl-1H-pyrazol-4-yl)quinazolin-2-ylamino)benzenesulfonamide], the EC50 [1] was < 5 µM, the IC50 [2] was < 5 µM and the EC50 [3] was < 5 µM. The EC50 [4] was < 5 µM.
In the case of CC(C)NS(=O)(=O)c1ccc(Nc2ncc3cccc(OC4CCNCC4)c3n2)cc1 [Compound 779, N-isopropyl-4-(8-(piperidin-4-yloxy)quinazolin-2-ylamino)benzenesulfonamide], the EC50 [1] is reported as < 5 µM, the IC50 [2] is reported as < 5 µM and the EC50 [3] is reported as < 5 µM. For the same molecule, the EC50 [4] was < 5 µM.
With COCCNS(=O)(=O)c1ccc(Nc2ncc3cccc(OC4CCNCC4)c3n2)cc1 [Compound 780, N-(2-methoxyethyl)-4-(8-(piperidin-4-yloxy)quinazolin-2-ylamino)benzenesulfonamide] the EC50 [1] was < 5 µM, the IC50 [2] was < 5 µM and the EC50 [3] was < 5 µM. The EC50 [4] was < 5 µM.
CN1CCN(c2ccc(-c3cccc4cnc(Nc5ccc(S(N)(=O)=O)cc5)nc34)cn2)CC1 [Compound 827, 4-(8-(6-(4-methylpiperazin-1-yl)pyridin-3-yl)quinazolin-2-ylamino)benzenesulfonamide] was tested, and the EC50 [1] was < 5 µM, the IC50 [2] was < 5 µM and the EC50 [3] was < 5 µM. For the same molecule, the EC50 [4] was < 5 µM.
CC(C)N1CCC(Oc2cccc3cnc(Nc4ccc(S(=O)(=O)N5CCOCC5)cc4)nc23)CC1 [Compound 772, 8-(1-isopropylpiperidin-4-yloxy)-N-(4-(morpholinosulfonyl)-phenyl)quinazolin-2-amine] was tested, and the EC50 [1] was < 5 µM, the IC50 [2] was < 5 µM and the EC50 [3] was < 5 µM. The EC50 [4] was < 5 µM.
For NS(=O)(=O)c1ccc(Nc2ncc3cc(Br)cc(OC4CCNCC4)c3n2)cc1 [Compound 846, 4-(6-bromo-8-(piperidin-4-yloxy)quinazolin-2-ylamino)benzenesulfonamide], the EC50 [1] was < 5 µM, the IC50 [2] was < 5 µM and the EC50 [3] was < 5 µM. For the same molecule, the EC50 [4] was < 5 µM.
For NS(=O)(=O)c1ccc(Nc2ncc3cccc(-c4ccc(NCCN5CCCC5)nc4)c3n2)cc1 [Compound 830, 4-(8-(6-(2-(pyrrolidin-1-yl)ethylamino)pyridin-3-yl)-quinazolin-2-ylamino)benzenesulfonamide], the EC50 [1] was < 5 µM, the IC50 [2] was < 5 µM and the EC50 [3] was < 5 µM. For the same molecule, the EC50 [4] was < 5 µM.
CN1C2CCC1CC(Oc1cccc3cnc(Nc4ccc(S(N)(=O)=O)cc4)nc13)C2 (stereo not shown) [Compound 749, 4-(8-(8-methyl-8-azabicyclo[3.2.1]octan-3-yloxy)quinazolin-2-ylamino)benzenesulfonamide] was tested, and the EC50 [1] was < 5 µM, the IC50 [2] was < 5 µM and the EC50 [3] was < 5 µM. For the same molecule, the EC50 [4] was < 5 µM.
With CC(C)NC(=O)c1ccc(Nc2ncc3cccc(OC4CCN(C(C)C)CC4)c3n2)cc1 [Compound 797, N-isopropyl-4-(8-(1-isopropylpiperidin-4-yloxy)quinazolin-2-ylamino)benzamide] the EC50 [1] was < 5 µM, the IC50 [2] was < 5 µM and the EC50 [3] was < 5 µM. For the same molecule, the EC50 [4] was < 5 µM.
With NS(=O)(=O)c1ccc(Nc2ncc3cccc(OC4CCNCC4)c3n2)cc1 [Compound 718, 4-(8-(piperidin-4-yloxy)quinazolin-2-ylamino)benzenesulfonamide] the EC50 [1] was < 5 µM, the IC50 [2] was < 5 µM and the EC50 [3] was < 5 µM. The EC50 [4] was < 5 µM.
With CC(C)N1CCC(c2c(O)ccc3cnc(Nc4ccc(S(N)(=O)=O)cc4)nc23)CC1 [Compound 795, 4-(7-hydroxy-8-(1-isopropylpiperidin-4-yl)quinazolin-2-ylamino)benzenesulfonamide] the EC50 [1] was < 5 µM, the IC50 [2] was < 5 µM and the EC50 [3] was < 5 µM. The EC50 [4] was < 5 µM.
With NS(=O)(=O)c1ccc(Nc2ncc3cc(Br)cc(OC4CN5CCC4CC5)c3n2)cc1 (stereo not shown) [Compound 847, 4-(6-bromo-8-(quinuclidin-3-yloxy)quinazolin-2-ylamino)benzenesulfonamide] the EC50 [1] was < 5 µM, the IC50 [2] was < 5 µM and the EC50 [3] was < 5 µM. The EC50 [4] was < 5 µM.
CC(C)N1CCN(C(=O)c2ccc3cnc(Nc4ccc(S(N)(=O)=O)cc4)nc3c2)CC1 [Compound 766, 4-(7-(4-isopropylpiperazine-1-carbonyl)quinazolin-2-ylamino)benzenesulfonamide] was tested, and the EC50 [1] was 10 to 25 µM, the IC50 [2] was < 5 µM and the EC50 [3] was 5 to 10 µM.
In the case of NS(=O)(=O)c1ccc(Nc2ncc3ccc(-c4ccc(F)nc4)cc3n2)cc1 [Compound 837, 4-(7-(6-fluoropyridin-3-yl)quinazolin-2-ylamino)benzenesulfonamide], the EC50 [1] is reported as < 5 µM, the IC50 [2] is reported as < 5 µM and the EC50 [3] is reported as < 5 µM.
In the case of NS(=O)(=O)c1ccc(Nc2ncc3cccc(-c4ccccc4)c3n2)cc1 [Compound 757, 4-(8-phenylquinazolin-2-ylamino)benzenesulfonamide], the EC50 [1] is reported as < 5 µM, the IC50 [2] is reported as < 5 µM and the EC50 [3] is reported as < 5 µM.
In the case of NS(=O)(=O)c1ccc(Nc2ncc3cccc(-c4ccnc(N5CCNC(=O)C5)c4)c3n2)cc1 [Compound 755, 4-(8-(2-(3-oxopiperazin-1-yl)pyridin-4-yl)quinazolin-2-ylamino)benzenesulfonamide], the EC50 [1] is reported as < 5 µM, the IC50 [2] is reported as < 5 µM and the EC50 [3] is reported as < 5 µM.
In the case of NS(=O)(=O)c1ccc(Nc2ncc3cccc(-c4cnoc4)c3n2)cc1 [Compound 748, 4-(8-(isoxazol-4-yl)quinazolin-2-ylamino)benzenesulfonamide], the EC50 [1] is reported as < 5 µM, the IC50 [2] is reported as < 5 µM and the EC50 [3] is reported as < 5 µM.
In the case of CN1CC[C@H](Oc2cccc3cnc(Nc4ccc(S(N)(=O)=O)cc4)nc23)C1 [Compound 723, (S)-4-(8-(1-methylpyrrolidin-3-yloxy)quinazolin-2-ylamino)benzenesulfonamide], the EC50 [1] is reported as < 5 µM, the IC50 [2] is reported as < 5 µM and the EC50 [3] is reported as < 5 µM.
In the case of CC(C)N1CC(Oc2cccc3cnc(Nc4ccc(S(N)(=O)=O)cc4)nc23)C1 [Compound 818, 4-(8-(1-isopropylazetidin-3-yloxy)quinazolin-2-ylamino)benzenesulfonamide], the EC50 [1] is reported as < 5 µM, the IC50 [2] is reported as < 5 µM and the EC50 [3] is reported as < 5 µM.
In the case of NS(=O)(=O)c1ccc(Nc2ncc3ccc(-c4ccc(C(=O)N5CCOCC5)cc4)cc3n2)cc1 [Compound 802, 4-(7-(4-(morpholine-4-carbonyl)phenyl)quinazolin-2-ylamino)benzenesulfonamide], the EC50 [1] is reported as < 5 µM, the IC50 [2] is reported as < 5 µM and the EC50 [3] is reported as 5 to 10 µM.
With NS(=O)(=O)c1ccc(Nc2ncc3ccc(-c4cccc(S(N)(=O)=O)c4)cc3n2)cc1 [Compound 786, 3-(2-(4-sulfamoylphenylamino)quinazolin-7-yl)benzenesulfonamide] the EC50 [1] was < 5 µM, the IC50 [2] was < 5 µM and the EC50 [3] was 5 to 10 µM.
For Nc1ccc(-c2cccc3cnc(Nc4ccc(S(N)(=O)=O)cc4)nc23)cn1 [Compound 821, 4-(8-(6-aminopyridin-3-yl)quinazolin-2-ylamino)benzenesulfonamide], the EC50 [1] was < 5 µM, the IC50 [2] was < 5 µM and the EC50 [3] was < 5 µM.
With CN1CCC(Oc2cccc3cnc(Nc4ccc(S(N)(=O)=O)cc4)nc23)CC1 [Compound 724, 4-(8-(1-methylpiperidin-4-yloxy)quinazolin-2-ylamino)benzenesulfonamide] the EC50 [1] was < 5 µM, the IC50 [2] was < 5 µM and the EC50 [3] was < 5 µM.
